Results reported in patent publication US20070032521A1, “Use of c-kit inhibitors for treating type II diabetes” (AB Science, priority 2003, published 2007).

What was measured:
[1] = target: T1, purified intracellular domain of c-kit (Homo sapiens, UniProt P10721); test: in vitro TK inhibition assay (ELISA, phosphorylation of tyrosine containing target peptide); format: biochemical; details: purified intracellular domain of c-kit expressed in baculovirus
T1 construct: purified intracellular domain of c-kit expressed in baculovirus; made in house
T1 sequence (P10721 546-976 limits assumed): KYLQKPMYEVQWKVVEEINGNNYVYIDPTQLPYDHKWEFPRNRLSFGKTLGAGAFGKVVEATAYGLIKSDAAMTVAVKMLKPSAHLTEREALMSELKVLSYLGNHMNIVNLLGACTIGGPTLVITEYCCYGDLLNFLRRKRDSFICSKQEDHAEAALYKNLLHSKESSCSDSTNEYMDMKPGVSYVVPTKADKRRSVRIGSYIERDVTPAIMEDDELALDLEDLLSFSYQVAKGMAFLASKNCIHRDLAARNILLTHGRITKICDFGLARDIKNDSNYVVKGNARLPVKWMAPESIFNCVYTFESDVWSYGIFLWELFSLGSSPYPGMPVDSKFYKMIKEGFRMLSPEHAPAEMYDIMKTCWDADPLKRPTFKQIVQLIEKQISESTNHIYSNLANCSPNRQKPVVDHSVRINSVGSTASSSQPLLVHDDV
Method: in vitro TK Inhibition Assays
Experiments were performed using purified intracellular domain of c-kit expressed in baculovirus. Estimation of the kinase activity was assessed by the phosphoiylation of tyrosine containing target peptide estimated by established ELISA assay.

male db/db mice = test: Effect of c-kit inhibitors on serum glucose, insulin, triglycerides, cholesterol and NEFA levels in db/db mice; format: in vivo, mouse
Text: Effect of different c-kit inhibitors on serum glucose, insulin, triglycerides, cholesterol and non esterified fatty acids levels in db/db mice
The objective of this study is to assess the effects of different c-kit inhibitors on serum glucose, insulin, triglycerides, cholesterol and non esterified fatty acids levels in male db/db mice dosed orally, once-a-day, for 5 days.
30 male 9/11 weeks old C57BL/Ks J Rj-db (db/db) mice (Janvier, France or Harlan, France), weighing in the target range of 30 to 50 g, will be included in this study.
One to three days before beginning the treatments (T0), mice will be weighed and blood samples will be collected through the retro-orbital plexus under isoflurane anesthesia. Blood samples will be kept at room temperature for 5 to 10 min to form a spontaneous clot, then put in ice until they are centrifuged at 3500×g for 10-15 min at 4° C. An aliquot of serum will be used for measuring glucose levels.
Six groups of 5 mice will be formed with respect to homogeneous glycemia values by using a randomization table. Animal showing glycemia below 20 mM will be excluded from the study.
From T1 to T5, the mice will be weighed and dosed once daily for 5 consecutive days at constant time.
At T5, 2 hours after the last administration, blood samples will be collected through the retro-orbital plexus under isoflurane anesthesia. Blood samples will be kept at room temperature for 5 to 10 min to form a spontaneous clot, then put in ice until they are centrifuged at 3500×g for 10 min at 4° C. Serum will be aliquoted and frozen at −20° C. until use. After blood collection, the mice will be euthanized by cervical dislocation.
Serum glucose and triglycerides levels will be determined using the Synchron C×4 analyzer. Serum non esterified fatty acids levels will be measured manually using a colorimetric method, and insulin levels determined by ELISA.
The results will be expressed as mean±SEM: • Glucose levels (mM) at T5 • Insulin levels (nM) at T5 • Triglycerides levels (mM) at T5 • Non esterified fatty acids levels (mM) at T5
For each parameter, a % of effect will be calculated according to following formula: ((vehicle group−test group)/vehicle group)*100
Statistical analysis will consist in a one-way analysis of variance followed by multiple comparisons versus the vehicle group (Dunnett's test). In case the equal variance test fails, a Kruskall-Wallis one-way analysis of variance on ranks will be proposed. A difference will be considered significant for p<0.05.

[2] = as compared to vehicle, 10 mg/kg p.o. for 5 days
[3] = serum, male db/db mice, 10 mg/kg p.o. once daily for 5 days, T5, mean ± SEM, n = 5

Row | Structure (SMILES) | melting point | IC50 [1] | also measured
1 | Cc1ccc(NC(=O)c2ccc(NS(=O)(=O)c3cccs3)cc2)cc1Nc1nc(-c2cccnc2)cs1 [Compound 044, N-[4Methyl-3-(4-pyridin-3-yl-thiazol-2-ylamino)-phenyl]-4-(thiophene-2-sulfonylamino)-benzamide] | 230 to 233 °C |  | 
2 | Cc1ccc(NC(=O)c2cccc(N3CCN(C)CC3)c2)cc1Nc1nc(-c2cccnc2)cs1 [Compound 089, 3-(4-Methyl-piperazin-1-yl)-N-[4-methyl-3-(4-pyridin-3-yl-thiazol-2-ylamino)-phenyl]-benzamide] |  | < 10 µM | 
3 | Cc1ccc(NC(=O)c2ccc(N(C)C)cc2)cc1Nc1nc(-c2cccnc2)cs1 [Compound 047, 4-Dimethylamino-N-[4-methyl-3-(4-pyridin-3-yl-thiazol-2-ylamino)-phenyl]-benzamide] |  | < 10 µM | 
4 | Cc1ccc(NC(=O)c2cccc(N3CCOCC3)c2)cc1Nc1nc(-c2cccnc2)cs1 [Compound 090, N-[4-Methyl-3-(4-pyridin-3-yl-thiazol-2-ylamino)-phenyl]-3-morpholin-4-yl-benzamide] | 247 to 248 °C | < 10 µM | 
5 | Cc1ccc(NC(=O)c2ccc(CN3CCN(C)CC3)c(Br)c2)cc1Nc1nc(-c2cccnc2)cs1 [Compound 078, 3-Bromo-4-(4-methyl-piperazin-1-ylmethyl)-N-[4-methyl-3-(4-pyridin-3-yl-thiazol-2-ylamino)-phenyl]-benzamide] |  | < 10 µM | 
6 | Cc1ccc(NC(=O)c2ccc(C(C)N3CCN(C)CC3)cc2)cc1Nc1nc(-c2cccnc2)cs1 (centres unmarked) [Compound 082] | 153 to 155 °C | < 10 µM | 
7 | Cc1ccc(NC(=O)c2cccc(N(C)C)c2)cc1Nc1nc(-c2cccnc2)cs1 [Compound 088, 3-Dimethylamino-N-[4-methyl-3-(4-pyridin-3-yl-thiazol-2-ylamino)-phenyl]-benzamide] | 197 to 198 °C | < 10 µM | 
8 | Cc1ccc(NC(=O)Nc2ccc(F)cc2)cc1Nc1nc(-c2cccnc2)cs1 [Compound 012, 1-(4-Fluoro-phenyl)-3-[4-methyl-3-(4-pyridin-3-yl-thiazol-2-ylamino)-phenyl]-urea] |  | < 10 µM | 
9 | CN(CCOc1ccc(CC2SC(=O)NC2=O)cc1)c1ccccn1 (centres unmarked) [Rosiglitazone, rosiglitazone] |  |  | Cholesterol Effect (%) (male db/db mice; [2]): 19%; Glucose Effect (%) (male db/db mice; [2]): 59%; Insulin Effect (%) (male db/db mice; [2]): 77%; NEFA Effect (%) (male db/db mice; [2]): 63%; Triglycerides Effect (%) (male db/db mice; [2]): 71%; NEFA (male db/db mice; serum non esterified fatty acids, male db/db mice, 10 mg/kg p.o. once daily for 5 days, T5, mean ± SEM, n = 5): 0.31 ± 0.061 mM; Cholesterol (male db/db mice; [3]): 2.74 ± 0.47 mM; Glucose (male db/db mice; [3]): 11.25 ± 2.65 mM; Insulin (male db/db mice; [3]): 0.82 ± 0.27 nM; Triglycerides (male db/db mice; [3]): 0.46 ± 0.10 mM
10 | Cc1ccc(NC(=O)c2cccc(F)c2)cc1Nc1nc(-c2cccnc2)cs1 [Compound 045, 3-Fluoro-N-[4-methyl-3-(4-pyridin-3-yl-thiazol-2-ylamino)-phenyl]-benzamide] | 184 to 186 °C |  | 
11 | Cc1ccc(NC(=O)Nc2ccc(C)c(Nc3nc(-c4cccnc4)cs3)c2)cc1 [Compound 026, 1-[4Methyl-3-(4-pyridin-3-yl-thiazol-2-ylamino)-phenyl]-3-p-tolyl-urea] | 210 to 215 °C | < 10 µM | 
12 | Cc1ccc(NC(=O)c2ccc(CNC(=O)OC(C)(C)C)cc2)cc1Nc1nc(-c2cccnc2)cs1 [Compound 073, {4-[4-Methyl-3-(4-pyridin-3-yl-thiazol-2-ylamino)-phenylcarbamoyl]-benzyl}-carbamic acid tert-butyl ester] |  | < 10 µM | 
13 | Cc1ccc(NC(=O)c2ccc3c(c2)OCO3)cc1Nc1nc(-c2cccnc2)cs1 [Compound 051] | 130 to 132 °C | < 10 µM | 
14 | Cc1ccc(NC(=O)N(C(=O)NC2CCCCC2)C2CCCCC2)cc1Nc1nc(-c2cccnc2)cs1 [Compound 016, 1-Cyclohexyl-1-(N-Cyclohexyl-formamide)-3-[4-methyl-3-(4-pyridin-3-yl-thiazol-2-ylamino)-phenyl]-urea] |  | < 10 µM | 
15 | Cc1ccc(NC(=O)c2ccc(-c3ccncc3)cc2)cc1Nc1nc(-c2cccnc2)cs1 [Compound 046, N-[4-Methyl-3-(4-pyridin-3-yl-thiazol-2-ylamino)-phenyl]-4-pyridin-4-yl-benzamide] | 254 to 256 °C |  | 
16 | Cc1cncc(-c2csc(Nc3cc(NC(=O)c4ccc(CN5CCN(C)CC5)cc4)ccc3C)n2)c1 [Compound 084, N-{4-Methyl-3-[4-(5-methyl-pyridin-3-yl)-thiazol-2-ylamino]-phenyl}-4-(4-methyl-piperazin-1-ylmethyl)-benzamide] |  | < 10 µM | 

Now from value to compound, other results behind:

Row | melting point | IC50 [1] | Structure (SMILES) | also measured
17 | 75 to 80 °C | < 10 µM | Cc1ccc(NC(=O)c2cccc(OCCN3CCOCC3)c2)cc1Nc1nc(-c2cccnc2)cs1 [Compound 052] | 
18 | 118 to 120 °C | < 10 µM | Cc1ccc(NC(=O)c2ccc(CN3CCN(C)CC3)c(C(F)(F)F)c2)cc1Nc1nc(-c2cccnc2)cs1 [Compound 075] | 
19 | 210 to 215 °C | < 10 µM | Cc1ccc(NC(=O)Nc2cccc(F)c2)cc1Nc1nc(-c2cccnc2)cs1 [Compound 025, 1-(3-Fluoro-phenyl)-3-[4-methyl-3-(4-pyridin-3-yl-thiazol-2-ylamino)-phenyl]-urea] | 
20 | 116 to 120 °C | < 10 µM | Cc1ccc(NC(=O)CCCN2CCOCC2)cc1Nc1nc(-c2cccnc2)cs1 [Compound 096, N-[4-Methyl-3-(4-pyridin-3-yl-thiazol-2-ylamino)-phenyl]-4-morpholin-4-yl-butyramide] | 
21 |  | < 10 µM | Cc1ccc(NC(=O)Nc2ccc(OC(F)F)cc2)cc1Nc1nc(-c2cccnc2)cs1 [Compound 021, 1-(4-Difluoromethoxy-phenyl)-3-[4-methyl-3-(4-pyridin-3-yl-thiazol-2-ylamino)-phenyl]-urea] | 
22 | 103 to 106 °C | < 10 µM | Cc1ccc(F)c(C(=O)Nc2ccc(C)c(Nc3nc(-c4cccnc4)cs3)c2)c1 [Compound 048, 2-Fluoro-5-methyl-N-[4-methyl-3-(4-pyridin-3-yl-thiazol-2-ylamino)-phenyl]-benzamide] | 
23 |  | < 10 µM | Cc1ccc(NC(=O)c2cc(Br)c(CNCCCN3CCOCC3)c(Br)c2)cc1Nc1nc(-c2cccnc2)cs1 [Compound 087, 3,5-Dibromo-N-[4-methyl-3-(4-pyridin-3-yl-thiazol-2-ylamino)-phenyl]-4-[(3-morpholin-4-yl-propylamino)-methyl]-benzamide] | 
24 | 145 to 150 °C | < 10 µM | Cc1ccc(NC(=O)c2ccc(C(C)(C)C)cc2)cc1Nc1nc(-c2cccnc2)cs1 [Compound 049, 4-tert-Butyl-N-[4-methyl-3-(4-pyridin-3-yl-thiazol-2-ylamino)-phenyl]-benzamide] | 
